“And” between values parts separate entries of the source, which are not always exact repeats. Identical values can stand only once. Peptide text beside a SMILES is read from it.
Experiments:
[1] = Effective concentration against Nicotinic acetylcholine receptor alpha4-beta2 expressed in xenopus oocytes; type: cell-based; conditions: oocyte
[2] = Effective concentration against Nicotinic acetylcholine receptor alpha3-beta4 expressed in xenopus oocytes; type: cell-based; conditions: oocyte
[3] = molecular target: Neuronal acetylcholine receptor subunit alpha-7 (Rattus norvegicus) (UniProt Q05941); assay: Maximal response against Nicotinic acetylcholine receptor alpha 7
[4] = molecular target: T1, Neuronal acetylcholine receptor; alpha3/beta2 (Homo sapiens, UniProt P17787+P32297); assay: Effective concentration against Nicotinic acetylcholine receptor alpha3-beta2 expressed in xenopus oocytes; type: cell-based, Oocyte
[5] = molecular target: T2, Neuronal acetylcholine receptor; alpha4/beta2 (Homo sapiens, UniProt P17787+P43681); assay: Maximal response against Nicotinic acetylcholine receptor alpha4-beta2; type: protein-complex assay
[6] = molecular target: T3, Neuronal acetylcholine receptor; alpha3/beta4 (Homo sapiens, UniProt P30926+P32297); assay: Maximal response against Nicotinic acetylcholine receptor alpha3-beta4; type: protein-complex assay
[7] = molecular target: T2, Neuronal acetylcholine receptor; alpha4/beta2; assay: (§1) Inhibitory concentration against Nicotinic acetylcholine receptor alpha4-beta2; type: protein-complex assay
[8] = molecular target: T4, Neuronal acetylcholine receptor; alpha2/beta4 (Homo sapiens, UniProt P30926+Q15822); assay: Inhibitory concentration against Nicotinic acetylcholine receptor alpha2-beta4; type: protein-complex assay
[9] = molecular target: T3, Neuronal acetylcholine receptor; alpha3/beta4; assay: Inhibitory concentration against Nicotinic acetylcholine receptor alpha3-beta4; type: protein-complex assay
[10] = molecular target: T5, Neuronal acetylcholine receptor subunit alpha-7 (Homo sapiens, UniProt P36544); assay: Inhibitory concentration against Nicotinic acetylcholine receptor alpha 7
[11] = molecular target: T1, Neuronal acetylcholine receptor; alpha3/beta2; assay: Inhibitory concentration against Nicotinic acetylcholine receptor alpha3-beta2; type: protein-complex assay
[12] = molecular target: T2, Neuronal acetylcholine receptor; alpha4/beta2; assay: as §1; type: protein-complex assay; remark: listed apart in the source
[13] = molecular target: T5, Neuronal acetylcholine receptor subunit alpha-7; assay: Effective concentration against Nicotinic acetylcholine receptor alpha 7
[14] = molecular target: T1, Neuronal acetylcholine receptor; alpha3/beta2; assay: Maximal response against Nicotinic acetylcholine receptor alpha3-beta2; type: protein-complex assay
[15] = molecular target: T4, Neuronal acetylcholine receptor; alpha2/beta4; assay: Effective concentration against Nicotinic acetylcholine receptor alpha2-beta4; type: protein-complex assay
[16] = molecular target: T2, Neuronal acetylcholine receptor; alpha4/beta2; assay: Effective concentration against Nicotinic acetylcholine receptor alpha4-beta2; type: protein-complex assay
[17] = molecular target: T6, Neuronal acetylcholine receptor; alpha4/beta4 (Homo sapiens, UniProt P30926+P43681); assay: Effective concentration against Nicotinic acetylcholine receptor alpha4-beta4; type: protein-complex assay
[18] = molecular target: T1, Neuronal acetylcholine receptor; alpha3/beta2; assay: Effective concentration against Nicotinic acetylcholine receptor alpha3-beta2; type: protein-complex assay
[19] = molecular target: T3, Neuronal acetylcholine receptor; alpha3/beta4; assay: Effective concentration against Nicotinic acetylcholine receptor alpha3-beta4; type: protein-complex assay
[20] = molecular target: T6, Neuronal acetylcholine receptor; alpha4/beta4; assay: Maximal response against Nicotinic acetylcholine receptor alpha4-beta4; type: protein-complex assay
[21] = Effective concentration against Nicotinic acetylcholine receptor alpha2-beta4 expressed in xenopus oocytes; type: cell-based; conditions: oocyte
[22] = Effective concentration against Nicotinic acetylcholine receptor alpha4-beta4 expressed in xenopus oocytes; type: cell-based; conditions: oocyte
[23] = molecular target: T1, Neuronal acetylcholine receptor; alpha3/beta2; assay: Maximal response against Nicotinic acetylcholine receptor alpha3-beta2 expressed in HEK293 cells; type: cell-based
[24] = molecular target: T4, Neuronal acetylcholine receptor; alpha2/beta4; assay: Maximal response against Nicotinic acetylcholine receptor alpha2-beta4; type: protein-complex assay
[25] = molecular target: T2, Neuronal acetylcholine receptor; alpha4/beta2; assay: Maximal response against Nicotinic acetylcholine receptor alpha4-beta2 expressed in HEK293 cells; type: cell-based
[26] = molecular target: T4, Neuronal acetylcholine receptor; alpha2/beta4; assay: Maximal response against Nicotinic acetylcholine receptor alpha2-beta4 expressed in HEK293 cells; type: cell-based

T3 sequence (P30926 whole entry): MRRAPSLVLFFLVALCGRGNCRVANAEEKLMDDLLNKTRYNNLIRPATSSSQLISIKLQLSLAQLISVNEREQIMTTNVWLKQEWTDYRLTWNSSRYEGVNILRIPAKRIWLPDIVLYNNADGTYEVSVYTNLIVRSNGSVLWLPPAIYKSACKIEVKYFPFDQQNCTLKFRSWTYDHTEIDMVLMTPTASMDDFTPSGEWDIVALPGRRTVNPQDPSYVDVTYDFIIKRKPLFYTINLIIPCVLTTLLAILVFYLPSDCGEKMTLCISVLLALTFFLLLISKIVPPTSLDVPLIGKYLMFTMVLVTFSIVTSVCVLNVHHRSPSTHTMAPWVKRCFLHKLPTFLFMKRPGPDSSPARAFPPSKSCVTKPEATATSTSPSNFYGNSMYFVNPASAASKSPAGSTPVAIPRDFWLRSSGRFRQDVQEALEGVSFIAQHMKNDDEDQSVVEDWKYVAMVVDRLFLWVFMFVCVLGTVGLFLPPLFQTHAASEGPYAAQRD
T3 sequence (P32297 whole entry): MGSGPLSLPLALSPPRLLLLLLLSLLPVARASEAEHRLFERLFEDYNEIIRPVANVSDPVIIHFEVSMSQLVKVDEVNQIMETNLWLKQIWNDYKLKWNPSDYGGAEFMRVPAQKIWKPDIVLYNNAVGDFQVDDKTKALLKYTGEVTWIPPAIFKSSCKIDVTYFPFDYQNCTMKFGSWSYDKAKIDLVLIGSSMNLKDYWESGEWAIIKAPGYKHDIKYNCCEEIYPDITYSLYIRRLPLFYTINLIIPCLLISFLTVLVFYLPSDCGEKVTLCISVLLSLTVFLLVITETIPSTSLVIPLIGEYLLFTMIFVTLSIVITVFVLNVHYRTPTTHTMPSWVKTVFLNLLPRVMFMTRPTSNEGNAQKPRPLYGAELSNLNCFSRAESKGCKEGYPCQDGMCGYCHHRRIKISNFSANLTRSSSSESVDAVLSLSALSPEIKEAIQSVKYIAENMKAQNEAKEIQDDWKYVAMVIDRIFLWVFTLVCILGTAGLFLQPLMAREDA
T6 sequence (P30926 whole entry): as the sequence (P30926 whole entry) above
T6 sequence (P43681 whole entry): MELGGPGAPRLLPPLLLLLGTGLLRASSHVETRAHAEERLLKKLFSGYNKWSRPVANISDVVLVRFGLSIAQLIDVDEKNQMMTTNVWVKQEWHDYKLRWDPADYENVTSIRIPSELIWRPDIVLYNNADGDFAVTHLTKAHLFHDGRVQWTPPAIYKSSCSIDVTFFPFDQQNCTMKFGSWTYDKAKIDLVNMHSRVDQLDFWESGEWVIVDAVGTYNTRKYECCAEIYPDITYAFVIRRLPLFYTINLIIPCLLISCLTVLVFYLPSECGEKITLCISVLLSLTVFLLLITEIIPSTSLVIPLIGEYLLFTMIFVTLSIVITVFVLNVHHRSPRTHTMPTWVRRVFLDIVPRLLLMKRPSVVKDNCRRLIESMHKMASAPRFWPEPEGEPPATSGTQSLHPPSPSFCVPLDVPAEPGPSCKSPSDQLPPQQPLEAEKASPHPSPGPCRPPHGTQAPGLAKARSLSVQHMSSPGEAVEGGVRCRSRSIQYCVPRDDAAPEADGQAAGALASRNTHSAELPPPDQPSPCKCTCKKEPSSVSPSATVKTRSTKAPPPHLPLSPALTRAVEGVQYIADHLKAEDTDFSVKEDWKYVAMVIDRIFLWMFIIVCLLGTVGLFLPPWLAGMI
T5 sequence (P36544 whole entry): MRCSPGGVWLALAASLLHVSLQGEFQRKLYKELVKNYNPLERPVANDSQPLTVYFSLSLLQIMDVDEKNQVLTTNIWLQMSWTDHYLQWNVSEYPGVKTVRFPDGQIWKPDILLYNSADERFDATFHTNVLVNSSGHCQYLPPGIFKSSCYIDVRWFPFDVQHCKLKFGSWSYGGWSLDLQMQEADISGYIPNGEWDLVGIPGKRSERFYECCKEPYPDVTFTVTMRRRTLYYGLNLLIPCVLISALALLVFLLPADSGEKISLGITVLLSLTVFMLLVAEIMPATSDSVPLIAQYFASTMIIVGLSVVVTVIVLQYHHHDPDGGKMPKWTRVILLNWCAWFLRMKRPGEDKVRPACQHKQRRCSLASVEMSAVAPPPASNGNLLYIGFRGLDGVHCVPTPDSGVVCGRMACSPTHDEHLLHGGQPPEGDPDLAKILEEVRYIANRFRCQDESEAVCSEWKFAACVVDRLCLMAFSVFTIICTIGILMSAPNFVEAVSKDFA
Chain of Neuronal acetylcholine receptor subunit alpha-7 (Rattus norvegicus) (Q05941 whole entry): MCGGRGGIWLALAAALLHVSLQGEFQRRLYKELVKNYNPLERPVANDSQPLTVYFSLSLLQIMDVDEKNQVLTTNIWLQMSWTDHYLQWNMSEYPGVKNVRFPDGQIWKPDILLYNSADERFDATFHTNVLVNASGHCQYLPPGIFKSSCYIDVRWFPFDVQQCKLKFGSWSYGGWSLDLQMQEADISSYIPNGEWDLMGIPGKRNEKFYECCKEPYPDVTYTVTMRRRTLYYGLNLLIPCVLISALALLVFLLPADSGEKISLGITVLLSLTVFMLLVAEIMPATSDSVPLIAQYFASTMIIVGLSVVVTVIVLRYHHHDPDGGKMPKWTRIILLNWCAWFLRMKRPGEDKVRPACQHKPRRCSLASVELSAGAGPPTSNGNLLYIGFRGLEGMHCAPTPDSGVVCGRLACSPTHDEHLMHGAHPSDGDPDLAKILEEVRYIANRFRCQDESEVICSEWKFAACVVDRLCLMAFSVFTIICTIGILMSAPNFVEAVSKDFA
T2 sequence (P17787 whole entry): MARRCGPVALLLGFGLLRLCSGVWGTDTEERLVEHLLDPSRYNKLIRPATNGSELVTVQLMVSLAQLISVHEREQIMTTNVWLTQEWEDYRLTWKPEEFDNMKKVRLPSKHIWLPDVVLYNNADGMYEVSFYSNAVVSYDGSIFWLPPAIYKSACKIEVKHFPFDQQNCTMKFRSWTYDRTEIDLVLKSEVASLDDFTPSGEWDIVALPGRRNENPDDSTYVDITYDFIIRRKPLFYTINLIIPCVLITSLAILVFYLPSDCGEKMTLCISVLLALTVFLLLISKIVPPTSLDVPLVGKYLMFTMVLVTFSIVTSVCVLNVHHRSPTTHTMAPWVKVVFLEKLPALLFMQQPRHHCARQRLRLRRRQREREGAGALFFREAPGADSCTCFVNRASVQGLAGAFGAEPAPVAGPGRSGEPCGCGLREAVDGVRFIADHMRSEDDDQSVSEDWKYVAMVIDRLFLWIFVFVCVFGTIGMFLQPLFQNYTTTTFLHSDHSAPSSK
T2 sequence (P43681 whole entry): as the sequence (P43681 whole entry) above
T1 sequence (P17787 whole entry): as the sequence (P17787 whole entry) above
T1 sequence (P32297 whole entry): as the sequence (P32297 whole entry) above
T4 sequence (P30926 whole entry): as the sequence (P30926 whole entry) above
T4 sequence (Q15822 whole entry): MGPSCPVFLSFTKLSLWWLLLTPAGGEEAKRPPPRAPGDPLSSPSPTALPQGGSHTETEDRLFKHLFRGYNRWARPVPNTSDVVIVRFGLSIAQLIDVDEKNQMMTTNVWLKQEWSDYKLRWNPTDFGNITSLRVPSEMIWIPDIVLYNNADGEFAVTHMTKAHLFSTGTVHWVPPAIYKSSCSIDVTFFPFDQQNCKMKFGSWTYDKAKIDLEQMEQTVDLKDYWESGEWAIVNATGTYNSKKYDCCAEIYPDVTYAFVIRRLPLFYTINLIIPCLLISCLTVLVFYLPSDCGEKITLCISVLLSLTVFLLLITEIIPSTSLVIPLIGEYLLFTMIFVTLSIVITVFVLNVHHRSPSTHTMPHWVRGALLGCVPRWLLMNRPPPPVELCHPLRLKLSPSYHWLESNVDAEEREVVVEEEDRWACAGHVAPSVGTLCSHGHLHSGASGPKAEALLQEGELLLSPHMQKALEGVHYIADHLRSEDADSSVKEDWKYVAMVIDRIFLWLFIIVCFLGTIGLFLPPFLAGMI

O=C1NCC2(CN3CCC2CC3)O1 (stereo unspecified)
EC50 [1]: > 2000 µM | EC50 [2]: > 1000 µM | Rmax [3]: 78% | EC50 [4]: > 1000 µM

c1cncc(OC[C@@H]2CCN2)c1
Rmax [5]: 185% | Rmax [6]: 100% | Rmax [3]: 100%

CC[N+](CC)(CC)CCOc1ccc(/C=C/c2ccccc2)cc1
Concentration [7]: 3.2 µM

CCN1C[C@]2(COC(=O)c3ccccc3N3C(=O)C[C@H](C)C3=O)CC[C@H](OC)[C@@]34[C@@H]5C[C@H]6[C@H](OC)[C@@H]5[C@](O)(C[C@@H]6OC)[C@](O)([C@@H](OC)[C@H]23)[C@@H]14 [METHYLLYCACONITINE]
IC50 [8]: > 1 µM | IC50 [9]: > 1 µM | IC50 [10]: > 1 µM | IC50 [11]: > 1 µM

CC[C@H](C)[C@H](NC(=O)[C@H](Cc1c[nH]cn1)NC(=O)[C@H](CCC(N)=O)NC(=O)[C@H](CC(N)=O)NC(=O)[C@H](CC(N)=O)NC(=O)CNC(=O)[C@H](C)NC(=O)[C@H](CS)NC(=O)[C@H](C)NC(=O)[C@@H]1CCCN1C(=O)[C@H](Cc1c[nH]cn1)NC(=O)[C@H](CO)NC(=O)[C@H](CS)NC(=O)[C@H](CS)NC(=O)CN)C(=O)N[C@@H](CS)C(N)=O
IC50 [10]: 0.0011 µM | IC50 [11]: 0.0011 µM | IC50 [12]: 0.0011 µM

Clc1ccc(OC[C@@H]2CCN2)cn1
Rmax [5]: 161% | Rmax [6]: 166% | Rmax [3]: 85%

CCCC1CCCNC(c2cccnc2)C1 (stereo unspecified)
EC50 [13]: 44 µM | Rmax [5]: 3% | Rmax [6]: 2% | Rmax [14]: 5%

c1ccc(-c2cnc3c(c2)CC2(CN4CCC2CC4)O3)cc1 (stereo unspecified)
EC50 [15]: > 100 µM | EC50 [16]: > 100 µM | EC50 [17]: > 100 µM | EC50 [18]: > 100 µM | EC50 [19]: > 100 µM | Rmax [3]: 85%

c1cncc(C2CC3CCC2N3)c1 (stereo unspecified)
Rmax [5]: 112% | Rmax [20]: 147% | Rmax [6]: 61%

CCOc1cncc(/C=C/CCN)c1
Rmax [20]: 16% | Rmax [6]: 55%

O=C(NC1CN2CCC1CC2)c1ccc(-c2ccccn2)s1 (stereo unspecified)
EC50 [16]: > 10 µM | EC50 [17]: > 10 µM | EC50 [19]: > 10 µM | Rmax [3]: 100%

CC(NC(C)(C)C)C(=O)c1cccc(Cl)c1 (stereo unspecified) [BUPROPION]
IC50 [10]: 50 µM

C[C@H](NC(=O)[C@H](Cc1ccccc1)NC(=O)[C@H](CS)NC(=O)[C@@H]1CCCN1C(=O)[C@@H]1CCCN1C(=O)[C@H](Cc1ccc(O)cc1)NC(=O)[C@H](CO)NC(=O)[C@H](CS)NC(=O)[C@H](CS)NC(=O)CN)C(=O)N[C@H](C(=O)N[C@@H](CC(N)=O)C(=O)N[C@@H](CO)C(=O)NCC(=O)N[C@@H](Cc1ccc(O)cc1)C(=O)N[C@@H](CS)C(N)=O)[C@@H](C)O
IC50 [9]: > 0.75 µM

O=c1cccc2n1C[C@@H]1CNC[C@H]2C1 [CYTISINICLINE]
EC50 [21]: 39 µM | EC50 [22]: 0.9 µM | Rmax [23]: 55% | Rmax [24]: 58% | Rmax [25]: 42% | Rmax [5]: 11% and 2% | EC50 [1]: 2.7 µM | Rmax [14]: 23 µM | EC50 [2]: 72 µM | Rmax [3]: 90% and 105% | EC50 [4]: 67 µM

CN1CCC[C@H]1COc1cnc(Cl)c(-c2ccc(Cl)cc2)c1
IC50 [9]: 9.2 µM | IC50 [10]: 8.5 µM | Concentration [7]: 0.96 µM

COc1ccc(/C=C2\CCCN=C2c2cccnc2)c(OC)c1 [GTS-21]
EC50 [16]: > 10 µM | Rmax [5]: 0% | EC50 [17]: > 10 µM | EC50 [19]: > 10 µM | Rmax [3]: 23% and 28%

Cc1ncccc1OC[C@@H]1CCN1
Rmax [6]: < 15% | Rmax [3]: > 1000%

CC(C)C[C@H](NC(=O)[C@H](C)NC(=O)[C@H](CS)NC(=O)[C@@H]1CCCN1C(=O)[C@@H]1CCCN1C(=O)[C@H](CC(C)C)NC(=O)[C@H](CO)NC(=O)[C@H](CS)NC(=O)[C@H](CS)NC(=O)CN)C(=O)N[C@@H](CO)C(=O)N[C@@H](CC(N)=O)C(=O)N1CCC[C@H]1C(=O)N[C@@H](CC(=O)O)C(=O)N[C@@H](Cc1ccc(O)cc1)C(=O)N[C@@H](CS)C(N)=O (H-GCCSLPPCALSNPDYC-NH2)
IC50 [10]: 0.061 µM | IC50 [11]: 0.061 µM

CN1CCC[C@H]1c1cccnc1 [NICOTINE]
EC50 [21]: 21 µM | EC50 [22]: 5 µM | Rmax [23]: 100% | Rmax [24]: 114% | Rmax [25]: 3.5% | Rmax [5]: 73% | Rmax [26]: 100% | EC50 [1]: 5.5 µM | Rmax [20]: 100% and 85% and 108% | EC50 [2]: 80 µM | Rmax [3]: 74% and 97%

CN1C2CC[C@@H]1CC2c1ccnnc1 (stereo partly specified)
EC50 [13]: 25 µM | EC50 [16]: 0.32 µM | EC50 [18]: 0.013 µM

— ChEMBL document CHEMBL1145159 (J Med Chem, 2005)
